In paper PMC4774972, “Activity and Predicted Nephrotoxicity of Synthetic Antibiotics Based on Polymyxin B” (Journal of Medicinal Chemistry, 2016):
Converted amounts (≈) assume the structure as drawn. Read-outs that look alike come from different tables or passages of the source. Bridge positions count the residues as written; N and C are the ends. Square brackets hold non-standard residues; d marks the D form. Peptide text beside a SMILES is read from it. * marks the point of attachment. Phe(4-NH2) = Nc1ccc(C[C@H](N)C(=O)O)cc1; Octanoyl = CCCCCCCC(=O)*; Dab = NCC[C@H](N)C(=O)O

Tests used:
[1] = tested on: S. aureus ATCC 25923, MSSA; test: microbe, parasite or virus in culture; type: cell-based, Staphylococcus aureus
[2] = tested on: panel of predominantly G-ve bacteria; conditions: for most strains
[3] = tested on: primary human renal proximal tubule epithelial (hPT) cells; test: Nephrotoxicity assay, GGT release; type: cell-based
Excerpt: (§1) Primary human renal proximal tubule epithelial (hPT) cells were isolated and used for in vitro prediction of drug-induced nephrotoxicity[63],[64],[69] by measuring the release of metabolism enzymes, LDH and GGT, as previously described.[70]

HepG2 cells = test: Cytotoxicity assay (resazurin assay); type: cell-based, human; conditions: 4000 cells/well, 24 h incubation with compound, fluorescence 560/590
[4] = tested on: A. baumannii CI Ptyela 100734512:2, PmxR; conditions: MIC A. baumannii CI Ptyela 100734512:2, PmxR (µg/mL)
[5] = tested on: K. pneumoniae CI Koprana 100650661:1, PmxR; conditions: MIC K. pneumoniae CI Koprana 100650661:1, PmxR (µg/mL)
[6] = tested on: P. aeruginosa PA9704, PmxR; conditions: MIC P. aeruginosa PA9704, PmxR (µg/mL)
[7] = tested on: K. pneumoniae CI 138-16357-20362, PmxR; conditions: MIC K. pneumoniae CI 138-16357-20362, PmxR (µg/mL)
[8] = tested on: P. aeruginosa FADDI-PA070, PmxR; conditions: MIC P. aeruginosa FADDI-PA070, PmxR (µg/mL)
[9] = tested on: S. aureus ATCC 25923, MSSA; conditions: MIC S. aureus ATCC 25923, MSSA (µg/mL)
[10] = tested on: K. pneumoniae CI Koprana 100650661:1, PmxR; test: microbe, parasite or virus in culture; type: cell-based, Klebsiella pneumoniae
[11] = tested on: K. pneumoniae CI 138-16357-20362, PmxR; test: microbe, parasite or virus in culture; type: cell-based, Klebsiella pneumoniae
[12] = tested on: A. baumannii CI Ptyela 100734512:2, PmxR; test: microbe, parasite or virus in culture; type: cell-based, Acinetobacter baumannii
HepG2 = conditions: CC50 HepG2 (µM)
[13] = tested on: P. aeruginosa PA9704, PmxR; type: cell-based, Pseudomonas aeruginosa
Protocol: (§2) Bacteria were either obtained from American Type Culture Collection (ATCC; Manassas, VA, USA) or independent academic clinical isolate collections, as listed in Table S2. Bacteria were cultured in nutrient broth (NB; Bacto Laboratories, catalog no. 234000) or Muller Hinton broth (MHB; Bacto Laboratories, catalog no. 211443) at 37 °C overnight with shaking (∼180 rpm). A sample of each culture was then diluted 50-fold in fresh MHB and incubated at 37 °C for 1.5–3 h with shaking (∼180 rpm). Compound stock solutions were prepared as 0.64 or 2.56 mg/mL in water. The compounds, at twice the final desired concentration, were serially diluted 2-fold across the wells of 96-well plates (Polystyrene, Corning, catalogue No. 3370). Mid log phase bacterial cultures (after 1.5–3 h incubation) were diluted to a final concentration of 5 × 10^5 colony forming units (CFU)/mL, and 50 μL was added to each well giving a final compound concentration range of 32 μg/mL to 0.015 μg/mL (128–0.06 μg/mL for colistin and polymyxin B against the polymyxin resistant clinical isolates). MICs were determined visually after 18 h of incubation at 37 °C, with the MIC defined as the lowest compound concentration at which no bacterial growth was visible.
(§3) Table S2. Bacterial strains used for Minimum Inhibitory Concentration (MIC) […]
(§4) Organism Strain Strain description Strain Source
(§5) Escherichia coli ATCC 25922 FDA strain Seattle 1946 ATCC
(§6) Klebsiella pneumoniae ATCC 13883 Control strain ATCC
(§7) Klebsiella pneumoniae ATCC 700603 Multi-drug resistant ATCC
(§8) Klebsiella pneumoniae BAA-2146 Metallo-beta-lactamase- ATCC
(§9) Acinetobacter baumannii ATCC 19606 Type strain ATCC
(§10) Pseudomonas aeruginosa ATCC 27853 Type strain ATCC
(§11) Pseudomonas aeruginosa FADDI-PA070 Clinical isolate, Nation and Li labs, polymyxin resistant Monash University
(§12) Clinical isolate, Wang Hengzhuang, Pseudomonas aeruginosa PA9704 polymyxin resistant University Hospital of […]
(§13) Ptyela Clinical isolate, Ilias Karaiskos and Acinetobacter baumannii Carbapenem & Helen Giamarellou
(§14) Clinical isolate, Medicine, Hygeia
(§15) Klebsiella pneumoniae Koprana Carbapenem, & General Hospital, […]
(§16) Clinical isolate, (Instituto Dante […]
(§17) polymyxin resistant Cardiologia, São […]

[14] = tested on: P. aeruginosa FADDI-PA070, PmxR; type: cell-based, Pseudomonas aeruginosa
Protocol: as §2, §3, §4, §5, §6, §7, §8, §9, §10, §11, §12, §13, §14, §15, §16, §17

E. coli ATCC 25922 = conditions: MIC E. coli ATCC 25922 (µg/mL)
P. aeruginosa ATCC 27853 [15] = conditions: MIC P. aeruginosa ATCC 27853 (µg/mL)
A. baumannii ATCC 19606 [16] = conditions: MIC A. baumannii ATCC 19606 (µg/mL)
[17] = tested on: K. pneumoniae ATTC BAA-2146, NDM-1 pos; conditions: MIC K. pneumoniae ATTC BAA-2146, NDM-1 pos (µg/mL)
[18] = tested on: K. pneumoniae ATCC 700603, MDR; conditions: MIC K. pneumoniae ATCC 700603, MDR(µg/mL)
K. pneumoniae ATCC 13883 [19] = conditions: MIC K. pneumoniae ATCC 13883 (µg/mL)
[20] = tested on: K. pneumoniae ATTC BAA-2146, NDM-1 pos; type: cell-based, Klebsiella pneumoniae; conditions: MHB, 5 × 10^5 CFU/mL, read visually after 18 h at 37 °C
Protocol: as §2, §3, §4, §5, §6, §7, §8, §9, §10, §11, §12, §13, §14, §15, §16, §17

A. baumannii ATCC 19606 [21] = type: cell-based, Acinetobacter baumannii; conditions: MHB, 5 × 10^5 CFU/mL, read visually after 18 h at 37 °C
Protocol: as §2, §3, §4, §5, §6, §7, §8, §9, §10, §11, §12, §13, §14, §15, §16, §17

HEK293 cells = test: Cytotoxicity assay (resazurin assay); type: cell-based, human; conditions: 4000 cells/well, 24 h incubation with compound, fluorescence 560/590
P. aeruginosa ATCC 27853 [22] = test: microbe, parasite or virus in culture; type: cell-based, Pseudomonas aeruginosa; conditions: MHB, 5 × 10^5 CFU/mL, read visually after 18 h at 37 °C
Protocol: as §2, §3, §4, §5, §6, §7, §8, §9, §10, §11, §12, §13, §14, §15, §16, §17

[23] = tested on: K. pneumoniae ATCC 700603, MDR; type: cell-based, Klebsiella pneumoniae; conditions: MHB, 5 × 10^5 CFU/mL, read visually after 18 h at 37 °C
Protocol: as §2, §3, §4, §5, §6, §7, §8, §9, §10, §11, §12, §13, §14, §15, §16, §17

K. pneumoniae ATCC 13883 [24] = test: microbe, parasite or virus in culture; type: cell-based, Klebsiella pneumoniae; conditions: MHB, 5 × 10^5 CFU/mL, read visually after 18 h at 37 °C
[25] = tested on: primary human renal proximal tubule epithelial (hPT) cells; test: Nephrotoxicity assay, LDH release; type: cell-based; conditions: primary human kidney cells
Excerpt: as §1

[26] = carbapenem & polymyxin resistant clinical isolate, MHB, 5 × 10^5 CFU/mL, 18 h at 37 °C
[27] = polymyxin resistant clinical isolate, MHB, 5 × 10^5 CFU/mL, 18 h at 37 °C

CCCCCCCC(=O)N[C@@H](CCN)C(=O)N[C@H](C(=O)NCC(=O)N[C@H]1CCNC(=O)[C@H]([C@@H](C)O)NC(=O)[C@H](CCN)NC(=O)[C@H](CCN)NC(=O)[C@H](CC(C)C)NC(=O)[C@@H](Cc2ccccc2)NC(=O)[C@H](CCN)NC1=O)[C@@H](C)O [Compound 38] (Octanoyl-[Dab]TG[Dab][Dab][dF]L[Dab][Dab]T; lactam 4-C)
MIC S. aureus ATCC 25923, MSSA ([1]; ATCC 25923, 18 h): >64 µg/mL
MIC among the reference strains [2]: 0.5 to 2 µg/mL
GGT release CC50 [3]: >128 µg/mL
HepG2 - CC50 (HepG2 cells): > 300 µM
MIC [4]: > 32 µg/mL
MIC [5]: > 32 µg/mL
MIC [6]: > 32 µg/mL
MIC [7]: > 32 µg/mL
MIC [8]: > 32 µg/mL
MIC [9]: > 64 µg/mL
MIC K. pneumoniae CI Koprana 100650661:1, PmxR ([10]; CI Koprana 100650661:1, PmxR, 18 h): >32 µg/mL
MIC K. pneumoniae CI 138-16357-20362, PmxR ([11]; CI 138-16357-20362, PmxR, 18 h): >32 µg/mL
MIC A. baumannii CI Ptyela 100734512:2, PmxR ([12]; CI Ptyela 100734512:2, PmxR, 18 h): >32 µg/mL
CC50 (HepG2): > 300 µM
MIC P. aeruginosa PA9704, PmxR ([13]; PA9704, PmxR, 18 h): >32 µg/mL
MIC P. aeruginosa FADDI-PA070, PmxR ([14]; FADDI-PA070, PmxR, 18 h): >32 µg/mL

CCCCCCCC(=O)N[C@@H](CCN)C(=O)N[C@H](C(=O)N[C@@H](CCN)C(=O)N[C@H]1CCNC(=O)[C@H]([C@@H](C)O)NC(=O)[C@H](CCN)NC(=O)[C@H](CCN)NC(=O)[C@H](CC(C)C)NC(=O)[C@@H](Cc2ccccc2)NC(=O)[C@H](Cc2ccc(N)cc2)NC1=O)[C@@H](C)O [Compound 34] (Octanoyl-[Dab]T[Dab][Dab][Phe(4-NH2)][dF]L[Dab][Dab]T; lactam 4-C)
MIC (E. coli ATCC 25922): > 32 µg/mL
MIC (P. aeruginosa ATCC 27853 [15]): > 32 µg/mL
MIC (A. baumannii ATCC 19606 [16]): > 32 µg/mL
MIC [4]: > 32 µg/mL
MIC [5]: > 32 µg/mL
MIC [6]: > 32 µg/mL
MIC [7]: > 32 µg/mL
MIC [17]: > 32 µg/mL
MIC [18]: > 32 µg/mL
MIC (K. pneumoniae ATCC 13883 [19]): > 32 µg/mL
MIC [8]: > 32 µg/mL
MIC [9]: > 32 µg/mL
MIC K. pneumoniae ATTC BAA-2146, NDM-1 pos [20]: >32 µg/mL
MIC K. pneumoniae CI Koprana 100650661:1, PmxR [10, 26]: >32 µg/mL
MIC K. pneumoniae CI 138-16357-20362, PmxR [11, 26]: >32 µg/mL
CC50 (HepG2): > 300 µM

CC[C@H](C)CCCCC(=O)N[C@@H](CCN)C(=O)N[C@H](C(=O)N[C@@H](CCN)C(=O)N[C@H]1CCNC(=O)[C@H]([C@@H](C)O)NC(=O)[C@H](CCN)NC(=O)[C@H](CCN)NC(=O)[C@H](CC(C)C)NC(=O)[C@@H](Cc2ccccc2)NC(=O)[C@H](CCN)NC1=O)[C@@H](C)O [Polymyxin B 1, polymyxin B]
MIC S. aureus ATCC 25923, MSSA ([1]; MHB, 5 × 10^5 CFU/mL, read visually after 18 h at 37 °C): >64 µg/mL
GGT release CC50 ([3]; primary human kidney cells): 177 µg/mL
MIC A. baumannii ATCC 19606 (A. baumannii ATCC 19606 [21]): 0.25 µg/mL (≈ 0.208 µM)
HepG2 - CC50 (HepG2 cells): >300 µM
HEK293 CC50 (HEK293 cells): >300 µM
MIC P. aeruginosa ATCC 27853 (P. aeruginosa ATCC 27853 [22]): 0.5 µg/mL (≈ 0.415 µM)
MIC K. pneumoniae ATTC BAA-2146, NDM-1 pos [20]: 0.25 µg/mL (≈ 0.208 µM)
MIC K. pneumoniae ATCC 700603, MDR [23]: 0.5 µg/mL (≈ 0.415 µM)
MIC K. pneumoniae CI Koprana 100650661:1, PmxR [10, 26]: 64 µg/mL (≈ 53.2 µM)
MIC K. pneumoniae CI 138-16357-20362, PmxR [11, 26]: 64 µg/mL (≈ 53.2 µM)
MIC K. pneumoniae ATCC 13883 (K. pneumoniae ATCC 13883 [24]): 1 µg/mL (≈ 0.831 µM)
MIC A. baumannii CI Ptyela 100734512:2, PmxR [12, 26]: 64 µg/mL (≈ 53.2 µM)
LDH release CC50 [25]: 23 µg/mL
MIC P. aeruginosa PA9704, PmxR [13, 27]: 128 µg/mL (≈ 106 µM)
MIC P. aeruginosa FADDI-PA070, PmxR [14, 27]: 32 µg/mL (≈ 26.6 µM)
